Laboratory results reported in the supplement of paper PMC10307832.

Columns and labels:
Test in all cases: relative viability (nuclei count vs DMSO), 5 days (fraction); higher = more cells survive
Silmitasertib = compound: O=C(O)c1ccc2c(c1)nc(Nc1cccc(Cl)c1)c1ccncc12 [Silmitasertib]
Summary of the method: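 In 1536-well plates, lung cancer cell lines rested overnight at 37 °C before five library-drug doses (not always all listed), √10 apart, were pinned onto vehicle-anchored plates. Nuclei were counted with MetaXpress from 4× Hoechst images taken after 5 days without medium change. Viability compares treated-well with vehicle-well nuclei as a median over plates, and plates needed control CV below 25% plus at least one doubling to pass.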

[1] = compound: O=C(O)c1ccc2c(c1)nc(Nc1cccc(Cl)c1)c1ccncc12 [Silmitasertib] + C[C@@H](Oc1cc(-c2cnn(C3CCNCC3)c2)cnc1N)c1c(Cl)ccc(F)c1Cl [Crizotinib] (partner 1 µM)
Summary of the method: (§1)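 Values are medians from duplicate plates. Each reflects relative viability, defined as the nuclei count of treated wells over that of vehicle wells. Lung cancer cell lines in 1536-well plates were pin-tool dosed one day after seeding with one drug alone or with a fixed anchor-drug dose plus five library-drug doses (not always all listed) in √10 steps, then fixed, stained and imaged at 4× after 5 days.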

[2] = compound: O=C(O)c1ccc2c(c1)nc(Nc1cccc(Cl)c1)c1ccncc12 [Silmitasertib] + CCNC(=O)c1noc(-c2cc(C(C)C)c(O)cc2O)c1-c1ccc(CN2CCOCC2)cc1 [Luminespib] (partner 0.01 µM)
Summary of the method: as §1

[3] = compound: O=C(O)c1ccc2c(c1)nc(Nc1cccc(Cl)c1)c1ccncc12 [Silmitasertib] + C[C@]1(O)C[C@@H](c2nc(-c3ccc4ccc(-c5ccccc5)nc4c3)c3c(N)nccn32)C1 [Linsitinib] (partner 1 µM)
Summary of the method: as §1

[4] = compound: O=C(O)c1ccc2c(c1)nc(Nc1cccc(Cl)c1)c1ccncc12 [Silmitasertib] + O=C(CCCCCCC(=O)Nc1ccccc1)NO [Vorinostat] (partner 1 µM)
Summary of the method: as §1

Cell Line | relative viability (Silmitasertib; 0.04 µM) | relative viability (Silmitasertib; 0.4 µM) | relative viability (Silmitasertib; 1.265 µM) | relative viability (Silmitasertib; 4 µM) | relative viability ([1]; first compound 0.04 µM) | relative viability ([1]; first compound 0.4 µM) | relative viability ([1]; first compound 1.265 µM) | relative viability ([1]; first compound 4 µM) | relative viability ([2]; first compound 0.04 µM) | relative viability ([2]; first compound 0.4 µM) | relative viability ([2]; first compound 1.265 µM) | relative viability ([2]; first compound 4 µM) | relative viability ([3]; first compound 0.04 µM) | relative viability ([3]; first compound 0.4 µM) | relative viability ([3]; first compound 1.265 µM) | relative viability ([3]; first compound 4 µM) | relative viability ([4]; first compound 0.04 µM) | relative viability ([4]; first compound 0.4 µM) | relative viability ([4]; first compound 1.265 µM) | relative viability ([4]; first compound 4 µM)
201T | 1.08 | 0.994 | 1.02 | 1.06 | 0.999 | 0.991 | 1.07 | 1.18 | 1.03 | 1.03 | 1.12 | 1.28 | 1.03 | 1.02 | 0.889 | 1.01 | 1.09 | 0.949 | 1.02 | 0.837
A549 | 1.03 | 0.994 | 1 | 0.882 | 0.819 | 0.677 | 0.777 | 0.748 |  |  |  |  | 0.792 |  | 0.507 | 0.678 |  |  |  | 
A-427 | 1.07 |  | 1.03 | 0.396 | 0.888 |  | 0.805 | 0.63 | 1.04 |  | 1.06 | 0.656 | 1.11 |  | 1.28 | 1.04 | 0.87 | 0.761 | 0.954 | 0.568
ABC-1 | 1.37 | 0.773 | 0.656 | 0.465 | 1.27 | 1 | 0.516 | 0.445 | 0.889 | 0.696 | 0.332 | 0.312 | 0.788 | 1.13 | 0.523 | 0.294 | 1.22 | 0.733 | 0.642 | 0.553
BEN | 1.16 | 0.795 | 1 | 0.885 | 0.974 | 0.827 | 0.739 | 0.846 | 0.484 |  | 0.623 | 0.284 | 1.03 | 0.892 | 1.01 | 0.882 | 0.648 | 0.475 | 0.456 | 0.545
CAL-12T | 1.15 | 0.892 | 0.842 | 0.472 | 0.685 | 0.423 | 0.542 | 0.318 | 0.363 | 0.531 | 0.278 | 0.125 | 0.93 | 0.826 | 0.652 | 0.475 | 0.891 | 0.876 | 0.746 | 0.525
COR-L23 | 1.07 | 0.782 | 1.09 | 0.831 | 0.665 | 0.67 | 0.727 | 0.629 | 0.716 | 0.66 | 0.646 | 0.678 | 1.02 | 0.843 | 0.821 | 0.638 | 0.62 | 0.378 | 0.525 | 0.401
COR-L 105 | 1.05 | 0.902 | 0.768 | 0.553 | 0.881 | 0.679 | 0.702 | 0.501 | 0.709 | 0.767 | 0.541 | 0.447 | 0.977 | 0.82 | 0.92 | 0.574 | 0.843 | 0.901 | 0.688 | 0.663
ChaGo-K-1 | 1.07 | 0.735 | 0.96 | 0.885 | 1.35 | 1 | 1.07 | 0.931 | 0.586 | 0.57 | 0.566 | 0.607 |  |  |  |  | 0.786 | 0.574 | 0.62 | 0.539
